Source: patent US5648369A, “Aminoalkylpyridine compounds which are useful as anitconvulsant drugs, excitatory amino acid inhibitors and NMDA sigma receptor antagonists” (priority 1991, dated 1997)

How the values were obtained:
MES and scMet seizures = test: Anticonvulsant screening, ASP classification (MES and scMet tests) in mice, i.p.; assay type: in vivo, mouse; settings: for minimal effective dose: ip, i.p. mouse, read-out: ASP Group Classification; for ASP classification (Table 8): Table 8 comparison, titled MES Test, Rat, p.o.
[1] = tested on: subcutaneous pentylenetetrazol seizures; test: Subcutaneous pentylenetetrazol (Metrazole) seizure threshold test (scMet), mice, i.p.; assay type: in vivo; settings: Mus musculus, ip
Experimental: (§1) The Subcutaneous Pentylenetetrazol (Metrazole) Seizure Threshold Test (scMet): A 0.5% solution of 85 mg/kg of pentylenetetrazol is administered subcutaneously in the posterior midline. The animal is observed for 30 minutes.

[2] = Rotorod ataxia test (neurotoxicity), mice, i.p.; settings: mouse, in vivo, ip
Experimental: Neurotoxicity is evaluated in mice by the rotorod ataxia test. The animal is placed on a wooden rod of 11/8" diameter rotating at 6 rpm. Normal mice can remain on a rod rotating at this speed indefinitely.

[3] = tested on: subcutaneous pentylenetetrazol seizures; test: Subcutaneous pentylenetetrazol seizure threshold test (scMet), rat, p.o.; assay type: in vivo, rat (Sprague-Dawley); settings: po
Experimental: as §1

in vivo = test: in vivo; design: species or system rat (Sprague-Dawley); settings: rat, po
From the text: Inability to do so rapidly indicates a neurologic deficit.

MK-801 = test: Radioligand binding, MK-801, [3H]MK-801
From the text: (§2) EAAs are known to play important roles in excitatory neurotransmission in partial seizures as discussed earlier. […] Thus, several aminoalkylpyridines of this invention are effective antagonists of NMDA-receptor mediated EAA neurotransmission and function as noncompetitive NMDA antagonists and thus can be used to advantage in epilepsy, stroke and Alzheimer's disease.
(§3) EAAs are known to play important roles in excitatory transmission in partial seizures as discussed earlier. In general, antieptileptic drugs effective against MES seizures alter ionic transport across excitable membranes [Porter, R. J., and Pitlick, W. H., In "Basic and Clinical Pharmacology", 4th Edn., B. G. Katzung, Ed., Appleton and Lange, CA 1989, pp. 287-303]. Based on this rationale, the aminoalkylpyridines may be expected to attenuate EAA neurotransmission. Indeed, evaluation of potential displacement activity of #2 at all inhibitory and excitatory amino acid receptor types and subtypes using appropriate radioligands, indicate that this aminoalkylpyridine inhibits at 10 μM concentration, 49% of the binding of [^3 H]DTG, a ligand highly specific for the σ (sigma) receptor population of the PCP receptors on the NMDA receptor-ionophore complex (Table 6).
(§4) Values are expressed as the percent inhibition of specific binding and […]

PCF = test: Radioligand binding, PCP, [3H]TCP
From the text: as §2, §3, §4

Sigma = test: Radioligand binding, Sigma, [3H]DTG; settings: σ receptor population
From the text: (§5) EAAs are known to play important roles in excitatory neurotransmission in partial seizures as discussed earlier.
(§6) EAAs are known to play important roles in excitatory transmission in partial seizures as discussed earlier.

[4] = tested on: maximal electroshock seizures; test: Maximal electroshock seizure (MES) test in the rat, p.o.; settings: for ED50 / responders at 50 mg/kg: Rattus norvegicus, po; for ED50: read-out: ED50 MES; for responders at 50 mg/kg: read-out: Percent protection at 50 mg/kg dose, p.o., in the MES Test in the rat
From the text: (§7) The Maximal Electroshock Seizure Test (MES): Maximal electroshock seizures are elicited with a 60 Hz alternating current of 50 mA intensity in mice and about 150 mA in rats (5-7 times that necessary to elicit minimal electroshock seizures), delivered for 0.2 sec via corneal electrodes. A drop of 0.9% saline is instilled in the eye prior to application of the electrodes in order to prevent the death of the animal. Abolition of the hind limb tonic extension component of the seizure is defined as protection and results are expressed as number of animals protected/number of animals tested.
This species will be subject of the complete anticonvulsant quantification test evaluation as described above, but after oral (gavage) administration of the candidate compound.
Neurological deficit in rats is examined by the positional sense test and gait and stance test. […] Inability to do so rapidly indicates a neurologic deficit. In the gait and stance test, a neurologic deficit is indicated by a circular or zigzag gait, ataxia, abnormal spread of the legs, abnormal body posture, tremor, hyperactivity, lack of exploratory behavior, somnolence, stupor, or catalepsy.

[5] = tested on: maximal electroshock seizures; test: Maximal electroshock seizure (MES) test, anticonvulsant quantification in mice, i.p.; settings: for ED50: Mus musculus, ip, read-out: ED50 MES; for P.I. MES (TD50/ED50): mice
Experimental: Screening Methodology to Determine Anticonvulsant Activity: In mice, i.p.: All compounds are solubilized in 0.5% methylcellulose. […] The compounds are administered intraperitoneally in a volume of 0.01 ml/gm to male Carworth Farms #1 mice weighing about 20 gm. All compounds are tested at least at three dose levels (30, 100 an 300 mg/kg) at 30 minutes and 4 hours after their administration.
as §7
Anticonvulsant Quantification in Mice, i.p.: The ED50 values are determined in the MES, scMet and rotorod ataxia test.

[6] = tested on: endogenous L-glutamate release; test: Ca2+ dependent, K+ evoked release of endogenous L-glutamate in cerebrocortical slices; assay type: cell-based, guinea pig; settings: Cavia porcellus, means ± SEM, n = 4
Adenosine = test: Radioligand binding, Adenosine; settings: reference compound, Adenosine
From the text: as §2, §3, §4

Glycine = Glycine (Homo sapiens, UniProt Q05586); test: Radioligand binding, Glycine (excitatory), [3H]glycine; settings: reference compound, [3H]glycine
From the text: as §5, §6

Kainate = test: Radioligand binding, Kainate, [3H]KA; settings: reference compound, [3H]KA
From the text: as §2, §3, §4

| Compound | minimal effective dose (MES and scMet seizures) [mg/kg] | activity at the [3H]MK-801-binding receptor sites (in words) (MK-801) | activity at the [3H]TCP-binding receptor sites / PCP receptors (in words) (PCF) | inhibition of the binding of [3H]DTG (in words) (Sigma) | responders at 50 mg/kg [4] [%] | further results |
| --- | --- | --- | --- | --- | --- | --- |
| Clc1ccc(NCc2ccncc2)cc1 [Compound 11, 1-(4-Chloroanilino)-1-(4-pyridyl)-methan] | < 100 | no activity | no activity | inhibit selectively | 50 to 100 | ED50 [1]: 107 mg/kg; TD50 ([2]; mice, i.p., read-out: TD50 (rotorod)): < 225 mg/kg; ED50 [3]: > 250 mg/kg; TD50 (in vivo): > 500 mg/kg; ED50 [4]: 39.1 mg/kg; P.I. MES (TD50/ED50) ([4]; rat, p.o.): > 12.8; ED50 [5]: 68.4 mg/kg; P.I. MES (TD50/ED50) [5]: < 3.3 |
| Cc1ccc(NC(C)c2ccncc2)cc1 (centres unmarked) [Compound 6, 1-(4-Methylanilino)-1-(4-pyridyl)-ethan] | < 100 | no activity | no activity | inhibit selectively | – | ASP classification (Table 8) (MES and scMet seizures): I (They demonstrate anticonvulsant activity in either the MES test or the scMet test, or both at doses of 100 mg/kg or 30 mg/kg without signs of neurological deficit) |
| COc1ccc(NCc2ccncc2)cc1 [Compound 16, 1-(4-Methoxyanilino)-1-(4-pyridyl)-methan] | < 100 | – | – | – | – | – |
| c1ccc(N2N=NCC2c2ccncc2)cc1 (centres unmarked) [H, reference compound] | – | – | – | – | – | ASP classification (Table 8) (MES and scMet seizures): II (Class II compounds show anticonvulsant activity at doses greater than 100 mg/kg or show activity at 100 mg/kg which is not reinforced by similar activity at 300 mg/kg) |
| CC(Nc1cccc(Cl)c1)c1ccncc1 (centres unmarked) [Compound 3, 1-(3-Chloroanilino)-1-(4-pyridyl)-ethan] | < 100 | no activity | no activity | inhibit selectively | 50 to 75 | ED50 [1]: > 250 mg/kg; TD50 [2]: > 500 mg/kg; ED50 [5]: 95.5 mg/kg; P.I. MES (TD50/ED50) [5]: > 5.24 |
| Clc1ccc(N2N=NCC2c2ccncc2)cc1 (centres unmarked) [ADD17014, reference compound] | – | – | – | – | – | activity at 50 µM ([6]; 50 μM (K+), 30 mM K+, P < 0.001 vs K+ alone): 136 ± 6%; activity at 50 µM ([6]; 50 μM (basal)): 101 ± 9%; activity at 100 µM ([6]; 100 μM (K+), 30 mM K+, P < 0.001 vs K+ alone): 122 ± 5%; activity at 100 µM ([6]; 100 μM (basal)): 109 ± 4% |
| Clc1cccc(NCc2ccncc2)c1 [Compound 12, 1-(3-Chloroanilino)-1-(4-pyridyl)-methan] | < 100 | no activity | no activity | inhibit selectively | > 50 | – |
| COc1ccc(N2N=NCC2c2ccncc2)cc1 (centres unmarked) [4-OCH3, reference compound] | – | – | – | – | – | ASP classification (Table 8) (MES and scMet seizures): III (Those failing to demonstrate anticonvulsant activity at doses up to 300 mg/kg are considered inactive) |
| C[C@]12N[C@H](Cc3ccccc31)c1ccccc12 [MK-801, reference compound] | – | – | – | – | – | Ki (MK-801; reference compound, [3H]MK-801): 4.3 nM |
| CC(Nc1ccc(F)cc1)c1ccncc1 (centres unmarked) [Compound 5, 1-(4-Fluoroanilino)-1-(4-pyridyl)-ethan] | < 100 | no activity | no activity | inhibit selectively | 75 to 100 | ED50 [1]: > 80 mg/kg; TD50 [2]: 141 mg/kg; ED50 [3]: > 250 mg/kg; TD50 (in vivo): > 500 mg/kg; ED50 [4]: 81.1 mg/kg; P.I. MES (TD50/ED50) ([4]; rat, p.o.): > 6.17; ED50 [5]: 57.4 mg/kg; P.I. MES (TD50/ED50) [5]: 2.46 |
| CC(Nc1ccccc1)c1ccncc1 (centres unmarked) [Compound 8, 1-(Anilino)-1-(4-pyridyl)-ethan] | < 100 | no activity | no activity | inhibit selectively | 50 to 75 | ED50 [1]: < 300 mg/kg; TD50 [2]: 161 mg/kg; ED50 [3]: > 250 mg/kg; TD50 (in vivo): > 500 mg/kg; ED50 [4]: 48.4 mg/kg; P.I. MES (TD50/ED50) ([4]; rat, p.o.): > 10.33; ED50 [5]: 81.7 mg/kg; P.I. MES (TD50/ED50) [5]: 1.97 |
| Fc1ccc(NCc2ccncc2)cc1 [Compound 14] | < 100 | – | – | – | 25 | – |
| COc1ccc(NC(C)c2ccncc2)cc1 (centres unmarked) [Compound 7, 1-(4-Methoxyanilino)-1-(4-pyridyl)-ethan] | < 100 | – | – | – | 25 to 50 | ASP classification (Table 8) (MES and scMet seizures): I (They demonstrate anticonvulsant activity in either the MES test or the scMet test, or both at doses of 100 mg/kg or 30 mg/kg without signs of neurological deficit); protection at 50 mg/kg (Table 8) ([4]; 50 mg/kg, rat, p.o., MES): 25-50% |
| CNC(=O)[C@H]1O[C@@H](n2cnc3c(N)ncnc32)[C@H](O)[C@@H]1O [MECA, reference compound] | – | – | – | – | – | Ki (Adenosine): 39.5 nM |
| Clc1ccc(NCc2ccncc2)cc1Cl [Compound 10, 1-(3,4-Dichloroanilino)-1-(4-pyridyl)-methan] | < 100 | no activity | no activity | inhibit selectively | 50 | – |
| C[C@@H](N)C(=O)O [D-Alanine, reference compound] | – | – | – | – | – | Ki (Glycine): 4.9 µM |
| CC(Nc1ccc(Cl)cc1)c1cccnc1 (centres unmarked) [Compound 9, 1-(4-Chloroanilino)-1-(3-pyridyl)-ethan] | < 100 | no activity | no activity | inhibit selectively | 25 to 75 | – |
| CC(Nc1ccc(Br)cc1)c1ccncc1 (centres unmarked) [Compound 4, 1-(4-Bromoanilino)-1-(4-pyridyl)-ethan] | < 100 | no activity | no activity | inhibit selectively | 75 to 100 | ED50 [1]: > 200 mg/kg; TD50 [2]: > 200 mg/kg; ED50 [3]: > 250 mg/kg; TD50 (in vivo): > 500 mg/kg; ED50 [4]: 20.9 mg/kg; P.I. MES (TD50/ED50) ([4]; rat, p.o.): > 23.93; ED50 [5]: 62.7 mg/kg; P.I. MES (TD50/ED50) [5]: > 3.19 |
| Brc1ccc(NCc2ccncc2)cc1 [Compound 13, 1-(4-Bromoanilino)-1-(4-pyridyl)-methan] | < 100 | no activity | no activity | inhibit selectively | > 50 | – |
| CC(Nc1ccc(Cl)c(Cl)c1)c1ccncc1 (centres unmarked) [Compound 1, 1-(3,4-Dicloroanilino)-1-(4-pyridyl)-ethan] | < 100 | no activity | no activity | inhibit selectively | – | – |
| Cc1ccc(NCc2ccncc2)cc1 [Compound 15, 1-(4-Methylanilino)-1-(4-pyridyl)-methan] | < 100 | – | – | – | – | – |
| Cc1ccc(N2N=NCC2c2ccncc2)cc1 (centres unmarked) [4-CH3, reference compound] | – | – | – | – | – | ASP classification (Table 8) (MES and scMet seizures): II (Class II compounds show anticonvulsant activity at doses greater than 100 mg/kg or show activity at 100 mg/kg which is not reinforced by similar activity at 300 mg/kg) |
| C=C(C)[C@H]1CN[C@H](C(=O)O)[C@H]1CC(=O)O [Kainic Acid, reference compound] | – | – | – | – | – | Ki (Kainate): 24.9 nM |
| c1ccc(C2(N3CCCCC3)CCCCC2)cc1 [PCP, phencyclidine, reference compound] | – | – | – | – | – | Ki (PCF; reference compound, [3H]TCP): 62.3 nM |
